How the values were obtained:
[1] = biological target: T1, human Indoleamine 2,3-dioxygenase 1 (hIDO1) (Homo sapiens, UniProt P14902); assay: IDO1 Inhibitor Screening Assay Kit (Catalog # […]), enzymatic dose response; format: biochemical
T1 construct: gene IDO1

[2] = biological target: T2, human Tryptophan 2,3-dioxygenase 2 (hTDO2) (Homo sapiens, UniProt P48775); assay: TDO2 Fluorogenic Inhibitor Screening Assay Kit (Catalog # […]), enzymatic dose response; format: biochemical
T2 construct: gene TDO2
T2 sequence (P48775 whole entry): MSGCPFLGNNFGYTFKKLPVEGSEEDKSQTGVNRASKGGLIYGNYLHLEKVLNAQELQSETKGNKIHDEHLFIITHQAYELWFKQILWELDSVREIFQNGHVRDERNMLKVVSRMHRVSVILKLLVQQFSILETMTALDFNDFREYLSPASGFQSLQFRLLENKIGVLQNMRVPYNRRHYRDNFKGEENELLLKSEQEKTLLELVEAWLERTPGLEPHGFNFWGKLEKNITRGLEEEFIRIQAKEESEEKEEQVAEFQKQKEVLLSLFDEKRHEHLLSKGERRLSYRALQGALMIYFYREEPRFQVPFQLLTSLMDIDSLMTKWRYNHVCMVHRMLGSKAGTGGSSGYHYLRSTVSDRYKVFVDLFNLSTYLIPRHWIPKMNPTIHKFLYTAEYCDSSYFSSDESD

T1 sequence (P14902 whole entry): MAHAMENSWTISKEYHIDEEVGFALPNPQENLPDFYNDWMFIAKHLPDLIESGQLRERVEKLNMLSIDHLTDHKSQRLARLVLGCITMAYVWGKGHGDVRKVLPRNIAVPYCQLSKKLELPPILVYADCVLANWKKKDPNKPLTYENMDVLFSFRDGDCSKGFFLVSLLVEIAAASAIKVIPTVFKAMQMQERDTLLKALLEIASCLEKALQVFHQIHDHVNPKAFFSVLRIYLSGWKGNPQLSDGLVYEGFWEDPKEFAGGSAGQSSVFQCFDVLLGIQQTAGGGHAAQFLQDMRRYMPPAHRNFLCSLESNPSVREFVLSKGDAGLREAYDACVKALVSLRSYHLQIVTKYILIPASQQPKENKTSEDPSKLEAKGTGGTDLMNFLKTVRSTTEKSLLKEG

IC50 [1]: 351 ± 16 nM
IC50 [2]: 588 ± 27 nM
SMILES: O=C(O)C[C@H](O)C[C@H](O)/C=C/c1c(C2CC2)nc2ccccc2c1-c1ccc(F)cc1 [Pitavastatin]

— PMC11039737, “Exploring a repurposed candidate with dual hIDO1/hTDO2 inhibitory potential for anticancer efficacy identified through pharmacophore-based virtual screening and in vitro evaluation” (Scientific Reports, 2024)
